Measured values: the CheMixHub drug solubility set

Experiment: xn = mol fraction of the nth substance listed, in the solute-free solvent

CC1CCC2C(C)C(OC(=O)CCC(=O)O)OC3OC4(C)CCC1C32OO4 (stereo unspecified) + CC(C)O + O
solubility (g/100 g solution)
Settings | 278.15 K | 283.15 K | 288.15 K | 293.15 K | 298.15 K | 303.15 K | 308.15 K | 313.15 K | 318.15 K
x2 = 0.03232 | 0.0811 | 0.106 | 0.134 | 0.171 | 0.208 | 0.263 | 0.325 | 0.397 | 0.486
x2 = 0.06978 | 0.226 | 0.289 | 0.358 | 0.447 | 0.536 | 0.663 | 0.804 | 0.965 | 1.16
x2 = 0.114 | 0.47 | 0.591 | 0.72 | 0.884 | 1.05 | 1.27 | 1.52 | 1.8 | 2.13
x2 = 0.1666 | 0.786 | 0.985 | 1.18 | 1.43 | 1.68 | 2.02 | 2.37 | 2.77 | 3.23
x2 = 0.2309 | 1.12 | 1.38 | 1.65 | 1.97 | 2.31 | 2.72 | 3.18 | 3.68 | 4.25
x2 = 0.3106 | 1.41 | 1.7 | 2.02 | 2.43 | 2.8 | 3.3 | 3.83 | 4.42 | 5.04
x2 = 0.4116 | 1.62 | 1.95 | 2.3 | 2.75 | 3.15 | 3.69 | 4.24 | 4.87 | 5.54
x2 = 0.5455 | 1.77 | 2.13 | 2.49 | 2.94 | 3.37 | 3.92 | 4.5 | 5.12 | 5.8
x2 = 0.7299 | 1.84 | 2.17 | 2.53 | 3 | 3.42 | 3.96 | 4.53 | 5.15 | 5.78

CCOC(=O)OC1=C(c2cc(C)ccc2C)C(=O)NC12CCC(OC)CC2 (stereo unspecified) + CC(C)O + O
solubility (g/100 g solution)
Settings | 278.15 K | 283.15 K | 288.15 K | 293.15 K | 298.15 K | 303.15 K | 308.15 K | 313.15 K | 318.15 K
x2 = 0.2 | 0.638 | 0.86 | 1.19 | 1.61 | 2.18 | 2.85 | 3.73 | 4.8 | 6.15
x2 = 0.4 | 2.55 | 2.99 | 3.88 | 5 | 6.36 | 8.23 | 10.4 | 13.1 | 16.5
x2 = 0.6 | 3.11 | 3.92 | 5.04 | 6.01 | 7.67 | 9.71 | 12.3 | 15.4 | 19.1
x2 = 0.8 | 2.53 | 3.07 | 3.85 | 5.03 | 6.44 | 8.1 | 10.2 | 13.2 | 16.5

Cc1nc2n(c(=O)c1CCN1CCC(c3noc4cc(F)ccc34)CC1)CCCC2 + CC(C)O + O
solubility (g/100 g solution)
Settings | 278.15 K | 283.15 K | 288.15 K | 293.15 K | 298.15 K | 303.15 K | 308.15 K | 313.15 K
x2 = 0.1139 | 0.369 | 0.473 | 0.605 | 0.788 | 0.98 | 1.22 | 1.52 | 1.88
x2 = 0.1664 | 1.41 | 1.66 | 1.99 | 2.47 | 2.94 | 3.63 | 4.31 | 5.25
x2 = 0.2308 | 2.72 | 3.2 | 3.94 | 4.7 | 5.66 | 6.83 | 8.2 | 9.98
x2 = 0.3101 | 4.21 | 4.9 | 5.85 | 6.92 | 8.29 | 9.97 | 11.9 | 14.2
x2 = 0.4116 | 4.95 | 5.81 | 6.87 | 8.09 | 9.69 | 11.5 | 13.5 | 16.3
x2 = 0.5454 | 4.55 | 5.34 | 6.38 | 7.46 | 8.78 | 10.4 | 12.3 | 14.6
x2 = 0.7297 | 2.53 | 3.02 | 3.63 | 4.31 | 5.08 | 6.06 | 7.28 | 8.7

c1ccc(-c2ccc(C(c3ccccc3)n3ccnc3)cc2)cc1 (stereo unspecified) + CC(C)O + O
solubility (g/100 g solution)
Settings | 278.15 K | 283.15 K | 288.15 K | 293.15 K | 298.15 K | 303.15 K | 308.15 K | 313.15 K | 318.15 K
x2 = 0.03225 | 0.0342 | 0.0473 | 0.0644 | 0.0851 | 0.103 | 0.142 | 0.189 | 0.234 | 0.294
x2 = 0.06974 | 0.0839 | 0.115 | 0.155 | 0.204 | 0.247 | 0.338 | 0.444 | 0.549 | 0.687
x2 = 0.1139 | 0.17 | 0.232 | 0.31 | 0.408 | 0.497 | 0.673 | 0.876 | 1.09 | 1.35
x2 = 0.1666 | 0.29 | 0.394 | 0.525 | 0.692 | 0.849 | 1.14 | 1.48 | 1.84 | 2.29
x2 = 0.2307 | 0.426 | 0.578 | 0.767 | 1.05 | 1.37 | 1.77 | 2.24 | 2.81 | 3.38
x2 = 0.3103 | 0.547 | 0.744 | 0.987 | 1.32 | 1.65 | 2.2 | 2.83 | 3.56 | 4.43
x2 = 0.4117 | 0.629 | 0.928 | 1.26 | 1.69 | 2.19 | 2.73 | 3.34 | 4.23 | 5.29
x2 = 0.5454 | 0.662 | 0.935 | 1.36 | 1.8 | 2.39 | 2.97 | 3.63 | 4.64 | 5.84
x2 = 0.7297 | 0.651 | 0.899 | 1.25 | 1.75 | 2.25 | 2.98 | 3.86 | 4.96 | 6.12

CC1CCC2C(C)C(OC(=O)CCC(=O)O)OC3OC4(C)CCC1C32OO4 (stereo unspecified) + CC(O)CO + O
solubility (g/100 g solution)
Settings | 278.15 K | 283.15 K | 288.15 K | 293.15 K | 298.15 K | 303.15 K | 308.15 K | 313.15 K | 318.15 K
x2 = 0.02567 | 0.0421 | 0.056 | 0.0717 | 0.092 | 0.114 | 0.145 | 0.181 | 0.223 | 0.275
x2 = 0.05599 | 0.0843 | 0.11 | 0.139 | 0.176 | 0.215 | 0.27 | 0.333 | 0.404 | 0.492
x2 = 0.0921 | 0.155 | 0.201 | 0.25 | 0.313 | 0.377 | 0.466 | 0.568 | 0.682 | 0.819
x2 = 0.1363 | 0.259 | 0.33 | 0.408 | 0.503 | 0.606 | 0.737 | 0.888 | 1.05 | 1.25
x2 = 0.1915 | 0.384 | 0.484 | 0.593 | 0.724 | 0.853 | 1.03 | 1.23 | 1.45 | 1.71
x2 = 0.2622 | 0.501 | 0.635 | 0.77 | 0.932 | 1.1 | 1.3 | 1.55 | 1.81 | 2.09
x2 = 0.3554 | 0.579 | 0.73 | 0.88 | 1.06 | 1.24 | 1.46 | 1.72 | 2 | 2.3
x2 = 0.4866 | 0.602 | 0.746 | 0.906 | 1.08 | 1.27 | 1.48 | 1.75 | 2.01 | 2.31
x2 = 0.6826 | 0.571 | 0.704 | 0.845 | 1.02 | 1.19 | 1.38 | 1.62 | 1.86 | 2.12

c1ccc(-c2ccc(C(c3ccccc3)n3ccnc3)cc2)cc1 (stereo unspecified) + CC(O)CO + O
solubility (g/100 g solution)
Settings | 278.15 K | 283.15 K | 288.15 K | 293.15 K | 298.15 K | 303.15 K | 308.15 K | 313.15 K | 318.15 K
x2 = 0.02564 | 0.0702 | 0.0956 | 0.129 | 0.168 | 0.2 | 0.272 | 0.357 | 0.437 | 0.544
x2 = 0.0559 | 0.223 | 0.3 | 0.398 | 0.511 | 0.608 | 0.812 | 1.05 | 1.27 | 1.56
x2 = 0.09214 | 0.441 | 0.588 | 0.777 | 0.991 | 1.18 | 1.56 | 2 | 2.41 | 2.96
x2 = 0.1364 | 0.633 | 0.843 | 1.11 | 1.42 | 1.71 | 2.23 | 2.85 | 3.45 | 4.22
x2 = 0.1915 | 0.747 | 0.998 | 1.32 | 1.73 | 2.16 | 2.74 | 3.47 | 4.21 | 5.14
x2 = 0.2621 | 0.794 | 1.06 | 1.41 | 1.82 | 2.24 | 2.91 | 3.71 | 4.55 | 5.62
x2 = 0.3559 | 0.86 | 1.14 | 1.5 | 1.93 | 2.42 | 3.13 | 4 | 4.89 | 5.95
x2 = 0.4865 | 0.859 | 1.2 | 1.6 | 2.03 | 2.59 | 3.24 | 3.98 | 4.95 | 6.18
x2 = 0.6806 | 0.776 | 1.06 | 1.42 | 1.94 | 2.58 | 3.33 | 4.25 | 5.2 | 6.23

CC(S)C(=O)NCC(=O)O (stereo unspecified) + CCCCO + CC#N
solubility (g/100 g solution)
Settings | 273.15 K | 278.15 K | 283.15 K | 288.15 K | 293.15 K | 298.15 K | 303.15 K | 308.15 K | 313.15 K | 318.15 K
x2 = 0.1216 | 3.87 | 4.43 | 4.99 | 5.57 | 6.21 | 6.84 | 7.49 | 8.19 | 8.94 | 9.75
x2 = 0.2697 | 4.29 | 4.96 | 5.69 | 6.46 | 7.28 | 8.08 | 8.92 | 9.79 | 10.7 | 11.9
x2 = 0.4538 | 4.43 | 4.94 | 5.58 | 6.3 | 7.26 | 8.29 | 9.41 | 10.6 | 11.8 | 13
x2 = 0.689 | 4.42 | 5.29 | 6.26 | 7.32 | 8.38 | 9.51 | 10.7 | 12 | 13.3 | 14.7

CC(S)C(=O)NCC(=O)O (stereo unspecified) + CCCCO + Cc1ccccc1
solubility (g/100 g solution)
Settings | 273.15 K | 278.15 K | 283.15 K | 288.15 K | 293.15 K | 298.15 K | 303.15 K | 308.15 K | 313.15 K | 318.15 K
x2 = 0.2371 | 0.947 | 1.12 | 1.28 | 1.47 | 1.67 | 1.87 | 2.08 | 2.33 | 2.6 | 2.92
x2 = 0.4531 | 2.23 | 2.53 | 2.88 | 3.29 | 3.76 | 4.25 | 4.73 | 5.25 | 5.84 | 6.48
x2 = 0.6509 | 2.84 | 3.41 | 4.01 | 4.7 | 5.45 | 6.25 | 7.12 | 7.99 | 8.88 | 10
x2 = 0.8325 | 3.57 | 4.44 | 5.37 | 6.33 | 7.31 | 8.43 | 9.63 | 11 | 12.3 | 13.9
